According to patent publication US9550000B2, “Compositions, methods, and systems for the synthesis and use of imaging agents” (Lantheus Medical Imaging, Inc., priority 2011, dated 2017):

Legend:
[1] = Dofetilide induced ECG changes in sham control and regional cardiac denervated rabbits; assay type: in vivo, rabbit; conditions: for Dofetilide induced events: PVC / Dofetilide induced events: TdP: 4 μg/kg/min iv infusion
Method: Dofetilide is an antiarrhythmic drug used clinically and known to cause QTc prolongation and possible TdP. The role of cardiac denervation in dofetilide induced changes in QTc interval, premature ventricular contraction (PVC) and TdP was assessed in sham control and RCSD rabbits at 3 weeks after surgery. Rabbits were anesthetized with ketamine (40 mg/kg, im) and xylazine (9 mg/kg, im), and dofetilide (1 and 4 μg/kg/min, Haorui Pharma-Chem Inc. Edison, N.J.) was infused for 10 minutes via a catheter in the marginal ear vein. Electrocardiogram (ECG) in lead II configuration was recorded with Ponemah system (v4.3, Data Science International) before and during the drug infusion. Heart rate (HR) and QT interval were derived from ECG waveforms. The QT interval was corrected by Fridericia method (QTcf=QT/RR^1/3).

[2] = humans, 500 μg twice a day; cited from earlier work

Structure (SMILES): CN(CCOc1ccc(NS(C)(=O)=O)cc1)CCc1ccc(NS(C)(=O)=O)cc1 [dofetilide]
- Dofetilide induced events: PVC ([1]; Denervated rabbits (n = 8)): 5 (63%)
- Dofetilide induced events: TdP ([1]; Denervated rabbits (n = 8)): 2 (25%)
- Dofetilide induced events: PVC ([1]; Sham rabbits (n = 6)): 3 (50%)
- Dofetilide induced events: TdP ([1]; Sham rabbits (n = 6)): 1 (17%)
- ECG changes on intravenous administration ([1]; sham control and RCSD rabbits, 1 and 4 μg/kg/min for 10 minutes): induced bradycardia and QT prolongation
- bioavailability [2]: > 90%
